Article PMC3853768 (Molecular Pain, 2013)
Entries after “also recorded” stand apart in the source; their conditions may differ.

Key:
residual ICa = format: cell-based, mouse
R-type channels (Cav2.3) = format: cell-based, mouse

Molecule | block of residual ICa (residual ICa) | effect on ICa of R-type blocker (R-type channels (Cav2.3))
[Cl][Cd][Cl] [CdCl2] | residual ICa was blocked | –
SNX-482: blocker of R-type channels (Cav2.3), from Peptide Institute (GVDKAGCRYMFGGCSVNDDCCPRLGCHSLFSYCAWDLTFSD; UniProt P56854 1-41, looked up) | – | lack of effect; also recorded: without effect
